The values that follow come from US11234941B2, “Oil-free carotenoid composition” (GAT Therapeutics S.L., priority 2017, dated 2022).

The target in data set [1] is T1, glucocorticoid receptor (GR) (Homo sapiens, UniProt P04150).
T1 construct: the UAS-driven beta-lactamase is the reporter
T1 sequence (P04150 524-777 limits assumed): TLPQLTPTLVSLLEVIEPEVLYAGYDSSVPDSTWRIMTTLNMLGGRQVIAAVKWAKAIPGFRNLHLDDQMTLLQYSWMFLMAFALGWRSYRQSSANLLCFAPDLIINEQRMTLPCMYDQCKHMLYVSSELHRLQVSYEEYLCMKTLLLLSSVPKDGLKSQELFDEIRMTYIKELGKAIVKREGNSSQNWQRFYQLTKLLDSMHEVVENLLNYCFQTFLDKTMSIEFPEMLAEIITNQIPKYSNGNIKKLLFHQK
The data set can be described thus: SelectScreen cell-based GR antagonist assay (UAS-bla HEK 293T, beta-lactamase reporter, dexamethasone as agonist). How it is done:
An antagonist assay for GR was performed by SelectScreen® Cell-Based Nuclear Receptor Profiling Service of Life Technologies. […] Detection method is based on a beta-lactamase reporter gene (bla) combined with a FRET-enabled substrate. The data obtained in these assays was modelled to a sigmoidal dose response curve.

Data set [2] is described as follows: Observation of precipitation and aggregates during nanoparticle preparation. The conditions noted are these: after addition of the xanthophyll to the albumin solution.
Protocol: To prepare bovine serum albumin (BSA)—astaxanthin nanoparticles, albumin (20 mg, 5 mg or 1 mg depending on the protein:carotenoid ratio) was dissolved in 1 mL deionized water and 1 mg of astaxanthin was dissolved in 0.25 mL THF. The astaxanthin solution was slowly added to the BSA solution under stirring and nitrogen atmosphere. When the addition of carotene was completed the solution was stirred at room temperature for 10 additional minutes. The organic solvent (THF) in the mixed solution was slowly removed by speed vacuum at 25° C. Distillation was completed when the total solution volume was reduced by ⅔. Finally, the nanoparticle solutions were filtered through a 0.22 μm PES membrane filter and immediately stored in the dark at 4° C.
The mark [3] stands for this setting: at 10 μM, against dexamethasone.

Compound `CC(=O)O[C@H]1CC(C)(C)C(=C=C/C(C)=C/C=C/C(C)=C/C=C/C=C(C)/C=C/C=C(\C)C(=O)/C=C2/C(C)(C)C[C@H](O)C[C@@]2(C)O)[C@](C)(O)C1` [isofucoxanthin] yielded a GR inhibition in data set [1] (setting [3]) of 80%. Take `CC1=C(/C=C/C(C)=C/C=C/C(C)=C/C=C/C=C(C)/C=C/C=C(C)/C=C/C2=C(C)C(=O)[C@@H](O)CC2(C)C)C(C)(C)C[C@H](O)C1=O` [astaxanthin, reference compound]: the “antagonist effect on GR” value in data set [1] (against dexamethasone) is “neither compound exercised an antagonist effect on GR”.

Turning to `CC(=C/C=C/C(C)=C/C=C/C=C(C)/C=C/C=C(\C)C=C=C1C(C)(C)C[C@H](O)C[C@@]1(C)O)/C=C/[C@@]12O[C@]1(C)C[C@@H](O)CC2(C)C` [Neoxanthin, neoxanthin], in data set [1] (setting [3]), the GR inhibition result is recorded as “above 85%”. As to fucoxanthin, the “concentration from which it acts as GR antagonist” value in data set [1] (against the agonist dexamethasone) worked out at 30 nM. In data set [1] (setting [3]), this compound showed a GR inhibition of 50%. The “formation of aggregates with poor solubility during nanoparticle preparation” value in data set [2] is reported as “not observed”. For `CC1=C[C@H](O)CC(C)(C)[C@H]1/C=C/C(C)=C/C=C/C(C)=C/C=C/C=C(C)/C=C/C=C(C)/C=C/C1=C(C)C[C@@H](O)CC1(C)C` [lutein], testing at 10 µM in data set [1] (HEK-293T, at 10 μM, against dexamethasone) gave an inhibition of 80%. Take `CC1=C(/C=C/C(C)=C/C=C/C(C)=C/C=C/C=C(C)/C=C/C=C(C)/C=C/C2=C(C)CCCC2(C)C)C(C)(C)CCC1` [beta-carotene, reference compound]: the “antagonist effect on GR” value in data set [1] (against dexamethasone) is “neither compound exercised an antagonist effect on GR”.

Usually inhibition stands for the change of the read-out against control, counted positive when it falls.
